Patent US10828305B2 (SHANGHAI PHARMACEUTICALS HOLDING CO., LTD., priority 2016, dated 2020)

Assays:
[1] = test system: N87; test: Proliferation inhibition assay in vitro, N87 (CellTiter-Glo); type: cell-based; details: Homo sapiens; 72 hours; read-out: IC50(nM) cell N87
Experimental: (§1) Proliferation Inhibition Assay In Vitro of Cell Lines
(§2) 1. Cell culture and inoculation: on the first day of the experiment, normal cultured cells were taken in the exponential growth phase, the cells were dispersed by digesting, then the cell density was adjusted to 8.8×10^4 cells/mL for BT-474 and 6.6×10^4 cells/mL for N87, 90 μl of which were inoculated to each well in a 96-well cell culture plate; after inoculation, the microplate was placed at condition of 37° C., 5% CO2 overnight. 2. Dosing to cells: on the second day of the experiment, the microplate was taken out from incubator, […], of 10× compound was separately added to each well of the microplate, 2 duplicated wells were set for each concentration, 9 dosing concentrations were set for each compound. According to different cell lines, the initial concentration of each compound was different. Upon completion of addition, the microplate was placed at condition of 37° C., 5% CO2 for 72 hours. 3. Data acquisition: the microplate was taken out from the incubator and allowed to stand at room temperature to equilibrate for 30 minutes. 100 μl CellTiter-Glo® Luminescent Cell Viability Assay reaction solution which had been equilibrated at room temperature was added to each well and the microplate was shaken at 1300 rpm for 2 minutes at room temperature. The microplate was centrifuged at 2000 rpm for 1 minute in a HERAEUS Multifuge X1R and then allowed to equilibrate at room temperature for 10 minutes. The […] signal was measured on EnVision™.

[2] = test system: BT-474; test: Proliferation inhibition assay in vitro, BT-474 (CellTiter-Glo); type: cell-based; details: Homo sapiens, 72 hours, read-out: IC50(nM) cell BT-474
Experimental: as §1, §2

[3] = target: ErbB2 kinase (Homo sapiens, UniProt P04626); test: Enzymatic experiment on ErbB2 (HTRF kinEASE-TK); type: biochemical; details: ATP 4 μM; read-out: Kinase IC50 (nM) in vitro ErbB2
Experimental: (§3) Enzymatic Experiment on EGFR/ErbB2
(§4) Firstly, preparing 1× reaction buffer required for the kinase, 5× Enzymatic buffer (HEPES 20 mM pH7.0, NaN3 0.1%, BSA 0.05%, sodium orthovanadate 0.5 mM) in the HTRF kinEASE-TK kit was diluted to 1 time with deionized water, 50 nM Supplement Enzymatic buffer (SEB reagent), 1 mM MnCl2, 5 mM MgCl2 and 1 mM DTT were added. Secondly, preparing 5× compound, 10 mM test compound stock solution was diluted in multiple steps with DMSO in a 96-well compound plate to prepare 100× compound as initial concentration, which was then used as the first concentration to perform a 3-fold gradient dilution with DMSO to obtain 10 concentrations. Afterwards, 1 μl gradient dilution was added to 19 μl 1× reaction buffer to prepare 5× compound for use. Then 2 μl 5× compound was transferred from the 96 well plate into a 384-well plate. To the compound-free control wells was added with 2 μl the following liquid: 19 μl 1× reaction buffer with addition of 1 μl DMSO. To the blank control wells was added 2 μl 250 mM EDTA. The third step was enzymatic reaction, the kinase, substrate (TK Substrate-biotin) and ATP were formulated into 2.5× enzyme/substrate mixture and 2.5×ATP solution using 1× reaction buffer respectively. The final concentration of ErbB2 kinase was 0.06 ng/μl, the final concentration of ATP was 4 μM; the final concentration of EGFR kinase was 0.06 units/μl, the final concentration of ATP was 1.65 μM; 4 μl 2.5× enzyme/substrate mixture was added to a 384-well plate, which was incubated at room temperature for 5 minutes; 4 μl 2.5×ATP solution was added to each well and the mixture was allowed to react for 30 minutes at room temperature. The fourth step was termination of the reaction, HTRF Detection buffer was used to prepare a mixture of 2×TK Antibody-Eu(K) and Sa-XL665, the amount of TK Antibody-Eu(K) was 5 μl per well. After the enzymatic reaction was performed for 30 minutes, 10 μl of the above liquid was added to the 384-well plate and the mixture was allowed to react at room temperature for 1 hour. The data was measured on EnVision™, the laser of 337 nm wavelength was selected as the excitation light, RFU665 nM and RFU620 nM were measured, and […]/RFU620 nM×10000 was used as the final data for analysis.

[4] = target: EGFR kinase (Homo sapiens, UniProt P00533); test: Enzymatic experiment on EGFR (HTRF kinEASE-TK); type: biochemical; details: ATP 1.65 μM; read-out: Kinase IC50 (nM) in vitro EGFR
Experimental: as §3, §4

Chain of ErbB2 kinase (P04626 23-1255): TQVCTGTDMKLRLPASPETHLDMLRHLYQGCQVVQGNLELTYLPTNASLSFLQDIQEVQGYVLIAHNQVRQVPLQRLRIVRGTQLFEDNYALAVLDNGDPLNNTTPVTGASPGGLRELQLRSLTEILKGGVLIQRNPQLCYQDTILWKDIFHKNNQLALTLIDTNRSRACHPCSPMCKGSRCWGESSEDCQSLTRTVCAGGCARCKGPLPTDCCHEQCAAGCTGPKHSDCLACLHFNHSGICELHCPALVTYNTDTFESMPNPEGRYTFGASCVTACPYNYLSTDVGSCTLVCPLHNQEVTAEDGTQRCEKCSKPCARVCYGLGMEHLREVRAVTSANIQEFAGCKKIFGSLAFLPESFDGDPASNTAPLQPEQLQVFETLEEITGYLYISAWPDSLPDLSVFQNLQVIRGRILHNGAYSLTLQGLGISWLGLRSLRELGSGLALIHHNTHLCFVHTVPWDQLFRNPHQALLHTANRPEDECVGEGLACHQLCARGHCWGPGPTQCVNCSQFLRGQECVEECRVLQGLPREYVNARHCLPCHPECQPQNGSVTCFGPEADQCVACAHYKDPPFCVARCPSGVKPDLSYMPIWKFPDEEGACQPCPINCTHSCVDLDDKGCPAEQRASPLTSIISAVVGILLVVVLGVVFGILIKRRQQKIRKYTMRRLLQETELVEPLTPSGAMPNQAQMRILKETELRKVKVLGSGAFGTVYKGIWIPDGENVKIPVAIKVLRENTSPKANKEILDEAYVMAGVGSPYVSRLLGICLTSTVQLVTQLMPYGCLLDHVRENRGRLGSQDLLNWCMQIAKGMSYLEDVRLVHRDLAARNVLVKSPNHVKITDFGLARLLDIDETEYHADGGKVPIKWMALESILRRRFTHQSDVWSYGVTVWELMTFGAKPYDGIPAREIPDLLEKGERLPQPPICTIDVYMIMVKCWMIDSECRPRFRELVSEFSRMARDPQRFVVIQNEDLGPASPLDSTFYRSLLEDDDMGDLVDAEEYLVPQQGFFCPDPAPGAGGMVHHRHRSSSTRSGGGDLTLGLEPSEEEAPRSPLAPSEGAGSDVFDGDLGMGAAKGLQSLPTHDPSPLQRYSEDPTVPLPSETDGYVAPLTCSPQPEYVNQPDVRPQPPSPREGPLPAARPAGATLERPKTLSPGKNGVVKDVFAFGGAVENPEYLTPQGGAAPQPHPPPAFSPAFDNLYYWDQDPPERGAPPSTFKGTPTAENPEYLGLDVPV
Chain of EGFR kinase (P00533 25-1210): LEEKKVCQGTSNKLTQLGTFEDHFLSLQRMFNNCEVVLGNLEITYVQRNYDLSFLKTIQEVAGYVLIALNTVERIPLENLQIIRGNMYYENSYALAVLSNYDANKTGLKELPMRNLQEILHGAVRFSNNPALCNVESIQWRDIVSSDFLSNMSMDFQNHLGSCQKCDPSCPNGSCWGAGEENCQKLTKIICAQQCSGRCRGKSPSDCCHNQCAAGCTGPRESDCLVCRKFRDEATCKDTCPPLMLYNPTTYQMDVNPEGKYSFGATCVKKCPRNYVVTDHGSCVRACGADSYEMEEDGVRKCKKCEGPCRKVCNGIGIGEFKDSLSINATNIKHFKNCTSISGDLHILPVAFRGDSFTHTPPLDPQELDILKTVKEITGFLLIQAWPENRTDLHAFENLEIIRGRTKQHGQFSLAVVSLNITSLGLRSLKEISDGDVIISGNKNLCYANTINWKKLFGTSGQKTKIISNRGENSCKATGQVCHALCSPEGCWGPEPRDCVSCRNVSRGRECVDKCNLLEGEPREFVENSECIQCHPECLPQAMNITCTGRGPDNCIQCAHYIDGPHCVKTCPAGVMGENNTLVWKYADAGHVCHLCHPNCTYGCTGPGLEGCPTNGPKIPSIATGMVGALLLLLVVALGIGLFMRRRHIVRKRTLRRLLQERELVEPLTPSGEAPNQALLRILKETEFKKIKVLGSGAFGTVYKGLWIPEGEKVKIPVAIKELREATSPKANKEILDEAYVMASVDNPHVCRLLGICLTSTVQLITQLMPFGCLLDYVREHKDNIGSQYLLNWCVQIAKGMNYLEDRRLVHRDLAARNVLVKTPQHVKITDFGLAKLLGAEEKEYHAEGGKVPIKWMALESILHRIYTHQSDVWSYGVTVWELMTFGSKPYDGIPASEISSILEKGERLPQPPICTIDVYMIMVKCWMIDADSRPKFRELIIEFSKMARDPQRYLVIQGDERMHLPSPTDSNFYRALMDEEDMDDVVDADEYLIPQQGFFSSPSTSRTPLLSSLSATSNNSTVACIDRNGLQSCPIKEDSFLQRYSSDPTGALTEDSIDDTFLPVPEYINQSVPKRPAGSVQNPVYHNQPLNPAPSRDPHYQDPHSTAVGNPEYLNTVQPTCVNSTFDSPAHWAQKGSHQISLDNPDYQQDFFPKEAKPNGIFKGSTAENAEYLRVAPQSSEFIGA

IC50 [2] | IC50 [3] | IC50 [4] | SMILES | IC50 [1]
187 nM | 10.1 nM | 57.4 nM | Cc1cc(Nc2ncnc3ccc(NC4=NCC5(CCN(C)CC5)O4)cc23)ccc1Oc1cc2nncn2cn1 [Embodiment 31, N^4-(4-([1,2,4]triazolo[4,3-c]pyrimidin-7-yloxy)-3-methylphenyl)-N^6-(8-methyl-1-oxa-3,8-diazaspiro[4.5]dec-2-en-2-yl)quinazoline-4,6-diamine] | 433 nM
49.6 nM | 1.1 nM | 10.9 nM | Cc1cc(Nc2ncnc3ccc(-c4cccc(N)c4)cc23)ccc1Oc1cc2nncn2cn1 [Embodiment 35] | 52.9 nM
41 nM | 1.43 nM | 11.6 nM | Cc1cc(Nc2ncnc3ccc(NC4=NC5(CCC5)CO4)cc23)ccc1Oc1cc2nncn2cn1 [Embodiment 44, N^4-(4-([1,2,4]triazolo[4,3-c]pyrimidin-7-yloxy)-3-methylphenyl)-N^6-(7-oxa-5-azaspiro[3.4]oct-5-en-6-yl)quinazoline-4,6-diamine] | 46 nM
85.4 nM | 2.8 nM | 53.4 nM | Cc1cc(Nc2ncnc3ccc(NC4=N[C@H](C(C)C)CO4)cc23)ccc1Oc1cc2nncn2cn1 [Embodiment 45, (R)—N^4-(4-([1,2,4]triazolo[4,3-c]pyrimidin-7-yloxy)-3-methylphenyl)-N^6-(4-isopropyl-4,5-dihydrooxazol-2-yl)quinazoline-4,6-diamine] | 93.4 nM
172 nM | 12 nM | 51.6 nM | Cc1cc(Nc2ncnc3ccc(NC4=NCC5(CCOCC5)O4)cc23)ccc1Oc1cc2nncn2cn1 [Embodiment 46, N^4-(4-([1,2,4]triazolo[4,3-c]pyrimidin-7-yloxy)-3-methylphenyl)-N^6-(1,8-dioxa-3-azaspiro[4.5]dec-2-en-2-yl)quinazoline-4,6-diamine] | 316 nM
35 nM | 2.6 nM | 31.4 nM | Cc1cc(Nc2ncnc3ccc(NC4=NC5(CCOCC5)CO4)cc23)ccc1Oc1cc2nncn2cn1 [Embodiment 47, N^4-(4-([1,2,4]triazolo[4,3-c]pyrimidin-7-yloxy)-3-methylphenyl)-N^6-(3,8-dioxa-1-azaspiro[4.5]dec-1-en-2-yl)quinazoline-4,6-diamine] | 68.4 nM
42.2 nM | 1.3 nM | 9.4 nM | Cc1cc(Nc2ncnc3ccc(NC4=NC5(CO4)CC(F)(F)C5)cc23)ccc1Oc1cc2nncn2cn1 [Embodiment 48, N^4-(4-([1,2,4]triazolo[4,3-c]pyrimidin-7-yloxy)-3-methylphenyl)-N^6-(2,2-difluoro-7-oxa-5-azaspiro[3.4]oct-5-en-6-yl)quinazoline-4,6-diamine] | 64 nM
5.9 nM | 3.58 nM | 57.9 nM | C=CC(=O)NC/C=C/c1ccc2ncnc(Nc3ccc(Oc4cc5nncn5cn4)c(C)c3)c2c1 [Embodiment 53, (E)-N-(3-(4-((4-([1,2,4]triazolo[4,3-c]pyrimidin-7-yloxy)-3-methylphenyl)amino)quinazolin-6-yl)allyl)acrylamide] | 6.2 nM

Second part, the molecule before the results:

SMILES | IC50 [2] | IC50 [3] | IC50 [4] | IC50 [1]
CNC(=O)CN1CCC(Oc2cc3c(Nc4ccc(Oc5cc6nncn6cn5)c(C)c4)ncnc3cc2OC)CC1 [Embodiment 32, 2-(4-(7-methoxy-4-(3-methyl-4-([1,2,4]triazolo[4,3-c]pyrimidin-7-yloxy)anilino)quinazolin-6-yl)oxy-1-piperidinyl)-N-methylacetamide] | 92.6 nM | 4.3 nM | 2 nM | 440 nM
COCC(=O)Nc1cccc(-c2ccc3ncnc(Nc4ccc(Oc5cc6nncn6cn5)c(C)c4)c3c2)c1 [Embodiment 34, N-(3-(4-((4-([1,2,4]triazolo[4,3-c]pyrimidin-7-yloxy)-3-methylphenyl)amino)quinazoline-6-yl)phenyl)-2-methoxyacetamide] | 55.6 nM | 2.1 nM | 8.2 nM | 46.3 nM
Cc1cc(Nc2ncnc3ccc(-c4ccc(CNCCNS(C)(=O)=O)o4)cc23)ccc1Oc1cc2nncn2cn1 [Embodiment 36, N-(2-(((5-(4-((4-([1,2,4]triazolo[4,3-c]pyrimidin-7-yloxy)-3-methylphenyl)amino)quinazolin-6-yl)furan-2-yl)methyl)amino)ethyl)methylsulfonamide] | 21.5 nM | 1.5 nM | 1.9 nM | 47.5 nM
CCOC(=O)Nc1cccc(-c2ccc3ncnc(Nc4ccc(Oc5cc6nncn6cn5)c(C)c4)c3c2)c1 [Embodiment 38, ethyl (3-(4-((4-([1,2,4]triazolo[4,3-c]pyrimidin-7-yloxy)-3-methylphenyl)amino)quinazoline-6-yl)phenyl)carbamate] | 186 nM | 5 nM | 28.1 nM | 86.6 nM
C=CC(=O)N1CCC(Oc2cc3c(Nc4ccc(Oc5cc6nncn6cn5)c(C)c4)ncnc3cc2OC)CC1 [Embodiment 41, 1-(4-((4-((4-([1,2,4]triazolo[4,3-c]pyrimidin-7-yloxy)-3-methylphenyl)amino)-7-methoxyquinazolin-6-yl)oxy)piperidin-1-yl)pro-2-en-1-one] | 6.9 nM | 4.3 nM | 1.3 nM | 11.7 nM
C=C(F)C(=O)N1CCC(Oc2cc3c(Nc4ccc(Oc5cc6nncn6cn5)c(C)c4)ncnc3cc2OC)CC1 [Embodiment 42, 1-(4-((4-((4-([1,2,4]triazolo[4,3-c]pyrimidin-7-yloxy)-3-methylphenyl)amino)-7-methoxyquinazolin-6-yl)oxy)piperidin-1-yl)-2-fluoroprop-2-en-1-one] | 36.7 nM | 5.2 nM | 8.3 nM | 39.2 nM
CCNC(=O)NC/C=C/c1ccc2ncnc(Nc3ccc(Oc4cc5nncn5cn4)c(C)c3)c2c1 [Embodiment 49, (E)-1-(3-(4-((4-([1,2,4]triazolo[4,3-c]pyrimidin-7-yloxy)-3-methylphenyl)amino)quinazolin-6-yl)allyl)-3-ethylurea] | 33.4 nM | 1.85 nM | 28.1 nM | 271 nM
CCNC(=O)Nc1cccc(-c2ccc3ncnc(Nc4ccc(Oc5cc6nncn6cn5)c(C)c4)c3c2)c1 [Embodiment 50, 1-(3-(4-((4-([1,2,4]triazolo[4,3-c]pyrimidin-7-yloxy)-3-methylphenyl)amino)quinazolin-6-yl)phenyl)-3-ethylurea] | 104 nM | 3.6 nM | 27.8 nM | 116 nM
Cc1cc(Nc2ncnc3ccc(-c4cccc(NC(=O)/C=C/c5cccnc5)c4)cc23)ccc1Oc1cc2nncn2cn1 [Embodiment 51, (E)-N-(3-(4-((4-([1,2,4]triazolo[4,3-c]pyrimidin-7-yloxy)-3-methylphenyl)amino)quinazolin-6-yl)phenyl)-3-(pyridin-3-yl)acryiamide] | 108 nM | 8.41 nM | 47.1 nM | 93.7 nM
C=CC(=O)Nc1cncc(-c2ccc3ncnc(Nc4ccc(Oc5cc6nncn6cn5)c(C)c4)c3c2)c1 [Embodiment 52, N-(5-(4-((4-([1,2,4]triazolo[4,3-c]pyrimidin-7-yloxy)-3-methylphenyl)amino)quinazolin-6-yl)pyridin-3-yl)acrylamide] | 30.4 nM | 2.35 nM | 21.6 nM | 117 nM
